This is an account of results in US20210196747A1, “METABOLISM IMPROVING AGENT” (University of the Ryukyus, priority 2018, published 2021).

The assay concerns model rat of the present invention (13LK freely fed). Put plainly: Alkalizing agent (citrate or sodium bicarbonate) given to the 13LK-fed model rat: urine pH and urinary corticosterone excretion (Example 3). It is filed as in vivo. Conditions: 13LK model rat, 1 week, n = 8; for Urine pH: 13LK control 5.7 ± 0.2; for Urine corticosterone: 13LK control 486 ± 115. The method, then:
Citrate or sodium bicarbonate was administered as an alkalizing agent using the model rat of the present invention prepared in Example 1 (13LK was freely fed as a feed for one week), and the results of confirming urine pH and urinary glucocorticoid (corticosterone) excretion are shown in Table 3. Urine pH increased and corticosterone excretion decreased in both the citrate administration group and the sodium bicarbonate administration group as compared to the control group.

For `O=C([O-])O.[Na+]` [NaHCO3, sodium bicarbonate], the “Urine pH” value turned out to be 6.8 ± 0.6 and the Urine corticosterone is reported as 309 ± 116 ng/day. Moreover, under “listed as sodium bicarbonate”, the “Urine pH” value is reported as “increased” and the Urine corticosterone result is “decreased”.
